According to patent US6589452B2, “Photochemically controlled photonic crystal diffraction” (University of Pittsburgh, priority 2000, dated 2003):

Columns and labels:
Format in all cases: physicochemical
[1] = photochemical behavior of a water solution of the azobenzene derivative under UV irradiation; conditions: UV 365 nm, 20 mW, monoexponential fit
Excerpt: In addition, a shoulder arising from the nπ* transition is evident at long wavelength side of the ππ* peak. This peak, due to nπ* transition, at 434 nm becomes dominant when a photostationary state under UV irradiation is reached (mainly cis-azobenzene). The intensity of the nπ* peak increases as the intensity of the ππ* band decreases due to the conversion of trans isomer to cis under UV light (FIG. 1). This is a typical behavior of azobenzene-type molecules. The photochemical behavior of a water solution of the azobenzene derivative of the present invention was determined under UV irradiation (365 nm, 20 mW) and irradiation with visible light ([…], ˜50 mW). Under 488 nm irradiation, the trans-isomer is restored and the photostationary state under visible light is very close to the equilibrium state in dark. When the azobenzene derivative was exposed to 365 nm irradiation, kinetic data fitted well to monoexponential function with the characteristic time of ˜40 seconds. In addition, thermal relaxation in dark follows monoexponential function with characteristic time of about 10 days at 24° C. Furthermore, the photochemical behavior of the azobenzene derivative of the present invention when covalently attached to the functionalized PCCA of the present invention was close to that of the azobenzene derivative in solution. […]

[2] = water solubility of the azobenzene derivative; conditions: compared with non-derivatized azobenzene
Excerpt: In addition, it retains similar photochemical properties as non-derivatized azobenzene.
In a particular embodiment of the invention, an azobenzene derivative, which is modified in order to increase its water solubility, is attached to the reactive PCCA through the reaction of the epoxide groups inside the hydrogel with primary amino groups on the azobenzene derivative. See Example 3. Hereinafter, the functionalized PCCA having azobenzene attached thereto is referred to as “AZO-PCCA”. […] For example, spiropyran may be attached to the gel by directly copolymerizing the spiropyran with the acrylamide. The photosensitive components of the present invention may be synthesized by methods well-known in the art.

[3] = thermal relaxation in the dark (cis-trans azobenzene isomerization); conditions: azobenzene derivative in solution; 24° C.; monoexponential
Method: FIG. 3 is a graph showing the characteristic time for UV irradiation and thermal relaxation of the AZO-PCCA. The characteristic time for UV irradiation (trans-cis azobenzene isomerization), which was performed at 365 nm, 10 mW, is ˜50 seconds (curve 1 and 2). The response time of the PCCA diffraction shift could be reduced by increasing the actinic light power. In addition, the characteristic time for thermal relaxation (cis-trans azobenzene isomerization), which was performed by placing the AZO-PCCA in the dark, is ˜10 days (curve 3 and 4).
In addition, a shoulder arising from the nπ* transition is evident at long wavelength side of the ππ* peak. This peak, due to nπ* transition, at 434 nm becomes dominant when a photostationary state under UV irradiation is reached (mainly cis-azobenzene). The intensity of the nπ* peak increases as the intensity of the ππ* band decreases due to the conversion of trans isomer to cis under UV light (FIG. 1). This is a typical behavior of azobenzene-type molecules. The photochemical behavior of a water solution of the azobenzene derivative of the present invention was determined under UV irradiation (365 nm, 20 mW) and irradiation with visible light ([…], ˜50 mW). Under 488 nm irradiation, the trans-isomer is restored and the photostationary state under visible light is very close to the equilibrium state in dark. […]

## NCc1ccc(N=Nc2ccc(OCC(O)CO)cc2)cc1 (stereo not drawn) [azobenzene derivative, 4-N-aminomethylbenzolazo-4-phenoxy glycerol ether]
[1]
  characteristic time, 365 nm irradiation (trans-cis): ~40 s
[2]
  water solubility: improved water solubility
[3]
  characteristic time of thermal relaxation in dark: about 10 days
